Test results taken from patent US8071768B2, “Alkylquinoline and alkylquinazoline kinase modulators” (Janssen Pharmaceutica, N.V., priority 2005, dated 2011).

These compounds were tested against T1, TrkB (Homo sapiens, UniProt Q16620) (assay: Trk B Fluorescence Polarization Kinase Assay). Details: uncertainty ±10%.
T1 construct: purchased Upstate 14-507M
T1 sequence (Q16620 32-822): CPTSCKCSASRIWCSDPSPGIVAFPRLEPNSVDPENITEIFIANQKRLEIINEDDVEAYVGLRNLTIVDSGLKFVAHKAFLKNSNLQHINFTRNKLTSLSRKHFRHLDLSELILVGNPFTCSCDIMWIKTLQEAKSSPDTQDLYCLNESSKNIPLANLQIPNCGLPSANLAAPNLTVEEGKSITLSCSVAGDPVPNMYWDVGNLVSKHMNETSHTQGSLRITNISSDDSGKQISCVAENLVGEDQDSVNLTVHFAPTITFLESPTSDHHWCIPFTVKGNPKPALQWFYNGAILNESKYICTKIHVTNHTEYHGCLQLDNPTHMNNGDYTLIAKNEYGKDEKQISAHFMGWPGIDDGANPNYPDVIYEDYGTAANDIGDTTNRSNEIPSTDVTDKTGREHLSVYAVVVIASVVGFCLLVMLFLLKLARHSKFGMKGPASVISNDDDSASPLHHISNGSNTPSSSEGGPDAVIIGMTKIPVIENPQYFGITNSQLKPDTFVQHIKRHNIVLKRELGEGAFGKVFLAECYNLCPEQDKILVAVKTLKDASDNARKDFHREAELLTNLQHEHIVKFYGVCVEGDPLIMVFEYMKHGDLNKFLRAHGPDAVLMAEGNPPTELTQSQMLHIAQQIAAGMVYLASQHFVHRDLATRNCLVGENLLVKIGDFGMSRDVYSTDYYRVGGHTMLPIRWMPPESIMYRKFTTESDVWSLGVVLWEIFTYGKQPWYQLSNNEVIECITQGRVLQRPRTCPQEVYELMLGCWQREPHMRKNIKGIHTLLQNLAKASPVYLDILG
Format: biochemical
Method in brief: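 The TrkB kinase reaction (50 nM enzyme, 20 ug/mL poly Glu4Tyr, 150 uM ATP, 5 mM MgCl2, 1% DMSO) ran 30 minutes at room temperature and was stopped with EDTA. Phosphorylation was detected by fluorescence-polarization displacement of a fluorescein phosphopeptide from an anti-phosphotyrosine antibody. IC50 came from a variable-slope sigmoidal fit of triplicates.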
With `O=C1CCCN1CCOc1ccc2c(C3CCN(C(=O)Nc4ccc(N5CCOCC5)cc4)CC3)ncnc2c1` [Compound 85, 4-{7-[2-(2-Oxo-pyrrolidin-1-yl)-ethoxy]-quinazolin-4-yl}-piperidine-1-carboxylic acid (4-morpholin-4-yl-phenyl)-amide] the IC50 was > 20 µM. `CS(=O)(=O)NCCCOc1ccc2c(C3CCN(C(=O)Nc4ccc(N5CCCC5)nc4)CC3)ncnc2c1` [Compound 86, 4-[7-(3-Methanesulfonylamino-propoxy)-quinazolin-4-yl]-piperidine-1-carboxylic acid (6-pyrrolidin-1-yl-pyridin-3-yl)-amide] gave an IC50 of 2 µM. Work on `CS(=O)(=O)NCCCOc1ccc2c(C3CCN(C(=O)Nc4ccc(N5CCOCC5)nc4)CC3)ncnc2c1` [Compound 87, 4-[7-(3-Methanesulfonylamino-propoxy)-quinazolin-4-yl]-piperidine-1-carboxylic acid (6-morpholin-4-yl-pyridin-3-yl)-amide] yielded an IC50 of 7.2 µM. For `O=C1CCCN1CCCOc1ccc2c(C3CCN(C(=O)Nc4cnc(N5CCCC5)nc4)CC3)ncnc2c1` [Compound 90, 4-{7-[3-(2-Oxo-pyrrolidin-1-yl)-propoxy]-quinazolin-4-yl}-piperidine-1-carboxylic acid (2-pyrrolidin-1-yl-pyrimidin-5-yl)-amide], the IC50 was 0.3 µM. `O=C(Nc1ccc(N2CCOCC2)nc1)N1CCC(c2ncnc3cc(OCCN4CCOC4=O)ccc23)CC1` [Compound 91, 4-{7-[2-(2-Oxo-oxazolidin-3-yl)-ethoxy]-quinazolin-4-yl}-piperidine-1-carboxylic acid (6-morpholin-4-yl-pyridin-3-yl)-amide] showed an IC50 of 1.9 µM. Work on `O=C(Nc1ccc(N2CCCC2)nc1)N1CCC(c2ncnc3cc(OCCN4CCOC4=O)ccc23)CC1` [Compound 92, 4-{7-[2-(2-Oxo-oxazolidin-3-yl)-ethoxy]-quinazolin-4-yl}-piperidine-1-carboxylic acid (6-pyrrolidin-1-yl-pyridin-3-yl)-amide] yielded an IC50 of 1.3 µM. In the case of `CN1CCC(COc2ccc3c(C4CCN(C(=O)Nc5ccc(N6CCOCC6)cc5)CC4)ncnc3c2)CC1` [Compound 94, 4-[7-(1-Methyl-piperidin-4-ylmethoxy)-quinazolin-4-yl]-piperidine-1-carboxylic acid (4-morpholin-4-yl-phenyl)-amide], the IC50 is reported as > 42 µM. Compound `O=C(Nc1ccc(N2CCCC2)nc1)N1CCC(c2ncnc3cc(OCCN4CCOCC4)ccc23)CC1` [Compound 95, 4-[7-(2-Morpholin-4-yl-ethoxy)-quinazolin-4-yl]-piperidine-1-carboxylic acid (6-pyrrolidin-1-yl-pyridin-3-yl)-amide] has an IC50 of 3.4 µM. For `O=C(Nc1ccc(N2CCOCC2)cc1)N1CCC(c2ncnc3cc(OCCN4CCOCC4)ccc23)CC1` [Compound 96, 4-[7-(2-Morpholin-4-yl-ethoxy)-quinazolin-4-yl]-piperidine-1-carboxylic acid (4-morpholin-4-yl-phenyl)-amide], the IC50 was 27.9 µM. With `CC(=O)N1CCN(CCOc2ccc3c(C4CCN(C(=O)Nc5ccc(N6CCOCC6)cc5)CC4)ncnc3c2)CC1` [Compound 97, 4-{7-[2-(4-Acetyl-piperazin-1-yl)-ethoxy]-quinazolin-4-yl}-piperidine-1-carboxylic acid (4-morpholin-4-yl-phenyl)-amide] the IC50 was > 20 µM. `O=C(Nc1ccc(N2CCOCC2)cc1)N1CCC(c2ncnc3cc(OCCC4CCCCN4)ccc23)CC1` (stereo not drawn) [Compound 98, 4-[7-(2-Piperidin-2-yl-ethoxy)-quinazolin-4-yl]-piperidine-1-carboxylic acid (4-morpholin-4-yl-phenyl)-amide] was tested, and the IC50 was > 20 µM. With `CN1CCC(COc2ccc3c(C4CCN(C(=O)Nc5ccc(N6CCCC6)nc5)CC4)ncnc3c2)CC1` [Compound 99, 4-[7-(1-Methyl-piperidin-4-ylmethoxy)-quinazolin-4-yl]-piperidine-1-carboxylic acid (6-pyrrolidin-1-yl-pyridin-3-yl)-amide] the IC50 was 6.41 µM. Compound `CC(C)Oc1ccc(NC(=O)N2CCC(c3ncnc4cc(N(C)C)ccc34)CC2)cc1` [Compound 100, 4-(7-Dimethylamino-quinazolin-4-yl)-piperidine-1-carboxylic acid (4-isopropoxy-phenyl)-amide] has an IC50 of 0.1 µM. Work on `CC(C)Oc1ccc(NC(=O)N2CCC(c3ncnc4ccc(OCCCN5CCCC5=O)cc34)CC2)cc1` [Compound 101, 4-{6-[3-(2-Oxo-pyrrolidin-1-yl)-propoxy]-quinazolin-4-yl}-piperidine-1-carboxylic acid (4-isopropoxy-phenyl)-amide] yielded an IC50 of 0.3 µM. `CC(C)Oc1ccc(NC(=O)N2CCC(c3ncnc4cc(NCCCN5CCN(C)CC5)ccc34)CC2)cc1` [Compound 102, 4-{7-[3-(4-Methyl-piperazin-1-yl)-propylamino]-quinazolin-4-yl}-piperidine-1-carboxylic acid (4-isopropoxy-phenyl)-amide] was tested, and the IC50 was 0.2 µM. `CC(C)Oc1ccc(NC(=O)N2CCC(c3ncnc4cc(N5CCN(C)CC5)ccc34)CC2)cc1` [Compound 103, 4-[7-(4-Methyl-piperazin-1-yl)-quinazolin-4-yl]-piperidine-1-carboxylic acid (4-isopropoxy-phenyl)-amide] was tested, and the IC50 was 0.2 µM. `CN1CCN(CCCOc2ccc3c(C4CCN(C(=O)Nc5ccc(N6CCCC6)nc5)CC4)ncnc3c2)CC1` [Compound 104, 4-{7-[3-(4-Methyl-piperazin-1-yl)-propoxy]-quinazolin-4-yl}-piperidine-1-carboxylic acid (6-pyrrolidin-1-yl-pyridin-3-yl)-amide] showed an IC50 of 0.8 µM. `CN1CCN(CCCOc2ccc3c(C4CCN(C(=O)Nc5cnc(N6CCCC6)nc5)CC4)ncnc3c2)CC1` [Compound 105, 4-{7-[3-(4-Methyl-piperazin-1-yl)-propoxy]-quinazolin-4-yl}-piperidine-1-carboxylic acid (2-pyrrolidin-1-yl-pyrimidin-5-yl)-amide] gave an IC50 of 0.2 µM. Work on `CN1CCN(CCCOc2ccc3c(C4CCN(C(=S)Nc5ccc(N6CCOCC6)nc5)CC4)ncnc3c2)CC1` [Compound 106, 4-{7-[3-(4-Methyl-piperazin-1-yl)-propoxy]-quinazolin-4-yl}-piperidine-1-carbothioic acid (6-morpholin-4-yl-pyridin-3-yl)-amide] yielded an IC50 of 16.3 µM. Work on `CN1CCC(COc2ccc3c(C4CCN(C(=O)Nc5ccc(OC6CCC6)nc5)CC4)ncnc3c2)CC1` [Compound 107, 4-[7-(1-Methyl-piperidin-4-ylmethoxy)-quinazolin-4-yl]-piperidine-1-carboxylic acid (6-cyclobutoxy-pyridin-3-yl)-amide] yielded an IC50 of 0.2 µM. For `CN1CCC(COc2ccc3c(C4CCN(C(=O)Nc5ccc(N6CCOCC6)nc5)CC4)ncnc3c2)CC1` [Compound 108, 4-[7-(1-Methyl-piperidin-4-ylmethoxy)-quinazolin-4-yl]-piperidine-1-carboxylic acid (6-morpholin-4-yl-pyridin-3-yl)-amide], the IC50 was 5.4 µM. `CN1CCC(COc2ccc3c(C4CCN(C(=O)Nc5ccc(N6CCCC6)cc5)CC4)ncnc3c2)CC1` [Compound 109, 4-[7-(1-Methyl-piperidin-4-ylmethoxy)-quinazolin-4-yl]-piperidine-1-carboxylic acid (4-pyrrolidin-1-yl-phenyl)-amide] showed an IC50 of 8.9 µM. With `O=C(Nc1ccc(N2CCOCC2)nc1)N1CCC(c2ncnc3cc(OCCCn4cnnc4)ccc23)CC1` [Compound 110, 4-[7-(3-[1,2,4]Triazol-4-yl-propoxy)-quinazolin-4-yl]-piperidine-1-carboxylic acid (6-morpholin-4-yl-pyridin-3-yl)-amide] the IC50 was 15 µM. For `CN(C)c1c(NCCCOc2ccc3c(C4CCN(C(=O)Nc5ccc(N6CCCC6)nc5)CC4)ncnc3c2)c(=O)c1=O` [Compound 111, 4-{7-[3-(2-Dimethylamino-3,4-dioxo-cyclobut-1-enylamino)-propoxy]-quinazolin-4-yl}-piperidine-1-carboxylic acid (6-pyrrolidin-1-yl-pyridin-3-yl)-amide], the IC50 was > 20 µM. Compound `O=C(NCCCOc1ccc2c(C3CCN(C(=O)Nc4ccc(N5CCOCC5)nc4)CC3)ncnc2c1)N1CCOCC1` [Compound 113, Morpholine-4-carboxylic acid (3-{4-[1-(6-morpholin-4-yl-pyridin-3-ylcarbamoyl)-piperidin-4-yl]-quinazolin-7-yloxy}-propyl)-amide] has an IC50 of 11.5 µM. For `CCN1CCN(CCCOc2ccc3c(C4CCN(C(=O)Nc5ccc(N6CCOCC6)cc5)CC4)ncnc3c2)CC1` [Compound 115, 4-{7-[3-(4-Ethyl-piperazin-1-yl)-propoxy]-quinazolin-4-yl}-piperidine-1-carboxylic acid (4-morpholin-4-yl-phenyl)-amide], the IC50 was > 20 µM. `CC(=O)N1CCN(CCCOc2ccc3c(C4CCN(C(=O)Nc5ccc(N6CCOCC6)cc5)CC4)ncnc3c2)CC1` [Compound 117, 4-{7-[3-(4-Acetyl-piperazin-1-yl)-propoxy]-quinazolin-4-yl}-piperidine-1-carboxylic acid (4-morpholin-4-yl-phenyl)-amide] was tested, and the IC50 was > 20 µM. `CS(=O)(=O)N1CCN(CCCOc2ccc3c(C4CCN(C(=O)Nc5ccc(N6CCOCC6)cc5)CC4)ncnc3c2)CC1` [Compound 118, 4-{7-[3-(4-Methanesulfonyl-piperazin-1-yl)-propoxy]-quinazolin-4-yl}-piperidine-1-carboxylic acid (4-morpholin-4-yl-phenyl)-amide] was tested, and the IC50 was 14.6 µM. In the case of `O=C(Nc1ccc(N2CCOCC2)cc1)N1CCC(c2ncnc3cc(OCCCN4CCC[C@H]4CO)ccc23)CC1` [Compound 119, (S)-4-{7-[3-(2-Hydroxymethyl-pyrrolidin-1-yl)-propoxy]-quinazolin-4-yl}-piperidine-1-carboxylic acid (4-morpholin-4-yl-phenyl)-amide], the IC50 is reported as > 20 µM. Work on `CN(C)C(=O)N1CCN(CCCOc2ccc3c(C4CCN(C(=O)Nc5ccc(N6CCOCC6)cc5)CC4)ncnc3c2)CC1` [Compound 120, 4-(3-{4-[1-(4-Morpholin-4-yl-phenylcarbamoyl)-piperidin-4-yl]-quinazolin-7-yloxy}-propyl)-piperazine-1-carboxylic acid dimethylamide] yielded an IC50 of 16.7 µM.
